Reference: patent US20230287336A1, “METHOD FOR IMPROVING FLAVONOID PHENYLPROPANOID COMPOUNDS IN SAUSSUREA INVOLUCRATA CELL CULTURE” (DALIAN PRACTICAL BIOTECHNOLOGY CO, .LTD, priority 2019, published 2023)
Like-named read-outs stand apart in the source and are kept apart here.

Key:
Format in all cases: cell-based
[1] = tested on: Saussurea involucrata cell culture; test: Content of total flavonoids in cultured cells, measured with a spectrophotometer (rutin standard curve)
Description: (2) Method for Determining Total Flavonoids of Saussurea involucrata:
Preparation of control solution: 10 mg of rutin control substance dried to a constant weight at 120° C. was precisely weighed and placed in a 50 mL volumetric flask, an appropriate amount of methanol was added, the mixture was heated in water bath to dissolve the rutin control substance and cooled down, methanol was added to the graduation line, and the mixture was shaken well. Then a control solution was obtained (0.2 mg of anhydrous rutin was contained in 1 mL of control solution);
Preparation of a standard curve: 1 mL, 2 mL, 3 mL, 4 mL, 5 mL and 6 mL of control solutions were precisely weighed and placed in 25 mL volumetric flasks respectively, water was added to 6 mL in each volumetric flask, 1 mL of 5% sodium nitrite solution was added, and the flasks were shaken well and placed for 6 min; 1 mL of 10% aluminum nitrate was added, and the flasks were shaken well and placed for 6 min; 10 mL of sodium hydroxide test solution was added, water was added to the graduation line, and the flasks were shaken well and placed for 15 min; a corresponding reagent was used as a blank, an absorbance was determined at 500 nm, and a standard curve was plotted with the absorbance as a longitudinal coordinate and a concentration as a horizontal coordinate;
Determination: About 0.10 g of coarse powder of this product was taken, precisely weighed and placed in a Soxhlet extractor, about 90 mL of methanol was added, the mixture was heated to reflux until an extracting solution became colorless (the number of reflux times for each sample should not be less than 4 and 2 hours) and transferred into a 50 mL volumetric flask, methanol was added to the graduation line, and the flask was shaken well.

[2] = tested on: Saussurea involucrata cell culture; test: Dry cell weight / yield of dried cultures after culturing
Description: (1) Measurement of Dry Cell Weight Cell culture solution was poured into a 120-mesh stainless steel mesh and filtered to harvest cells, the cells were washed with distilled water 3 times, moisture on the surface of the cells was fully absorbed with absorbent paper, a fresh weight was measured, […]

[3] = tested on: Saussurea involucrata cell culture; test: Contents of rutin, chlorogenic acid, syringin and 1,5-dicaffeoylquinic acid in cultured cells by HPLC
Description: (3) Content Determination of Phenylpropanoids
Cultured Saussurea involucrata cells dried to a constant weight were taken and ground to fine powder; about […] of fine powder was precisely weighed, placed in a test tube with a stopper and extracted ultrasonically with 50 mL of 20% methanol for 1 h; a weight loss was supplemented with methanol, the mixture was centrifuged at 15,000 r/min for 20 min, a supernatant was taken and filtered through a 0.45 μm filter membrane, and the contents of rutin, chlorogenic acid, syringin and 1,5-dicaffeoylquinic acid were determined simultaneously through HPLC. Shiseido capcell pak C18 MGII chromatographic column (4.6 mm×250 mm, 5 μm);
A mobile phase A was 0.2% of […] (containing 50 mmo/L KH2PO4), a mobile phase B was acetonitrile, and gradient elution was performed. Gradient conditions: 0 min (VA:VB=92:8)-20 min (VA:VB=90:10)-50 min (VA:VB=70:30)-60 min (VA:VB=50:50); flow velocity 1.0 mL/min^−1; column temperature 30° C.; detection wavelength 265 nm (syringin); sample size 20 μL.

[4] = harvested suspension culture, medium, additive, time of addition and culturing time as in each example
[5] = cells dried at 50° C. for 24 h, additive and culture conditions as in each example

O=C(O)C=Cc1ccccc1 [cinnamic acid]
content of total flavonoids in the cells [1, 4]: more than 22 % of the cells (dry weight)
weight of cultures after being dried (yield of dry products) [2, 5]: 15 g/L
content of 1,5-dicaffeoylquinic acid in the cells [3, 4]: more than 2.81%
content of chlorogenic acid in the cells [3, 4]: more than 1.66%
content of rutin in the cells [3, 4]: more than 0.066%
content of syringin in the cells [3, 4]: more than 1.45%

CC/C=C\CC1C(=O)CCC1CC(=O)OC (centres unmarked) [methyl jasmonate]
content of total flavonoids in the cells [1, 4]: more than 24.1 % of the cells (dry weight)
weight of cultures after being dried (yield of dry products) [2, 5]: 20.4 g/L
content of 1,5-dicaffeoylquinic acid in the cells [3, 4]: more than 4.12%
content of chlorogenic acid in the cells [3, 4]: more than 2.44%
content of rutin in the cells [3, 4]: more than 0.081%
content of syringin in the cells [3, 4]: more than 1.89%

O=C(O)C(=O)O [oxalic acid]
content of total flavonoids in the cells [1, 4]: more than 19.6 % of the cells (dry weight)
weight of cultures after being dried (yield of dry products) [2, 5]: 16 g/L
content of 1,5-dicaffeoylquinic acid in the cells [3, 4]: more than 1.72%
content of chlorogenic acid in the cells [3, 4]: more than 1.27%
content of rutin in the cells [3, 4]: more than 0.071%
content of syringin in the cells [3, 4]: more than 0.95%

N[C@@H](Cc1ccccc1)C(=O)O [phenylalanine]
content of total flavonoids in the cells [1, 4]: more than 22.7 % of the cells (dry weight)
weight of cultures after being dried (yield of dry products) [2, 5]: 15 g/L
content of 1,5-dicaffeoylquinic acid in the cells [3, 4]: more than 2.48%
content of chlorogenic acid in the cells [3, 4]: more than 1.28%
content of rutin in the cells [3, 4]: more than 0.078%
content of syringin in the cells [3, 4]: more than 2.07%

O=C(O)c1ccccc1O [salicylic acid]
content of total flavonoids in the cells [1, 4]: more than 21.2 % of the cells (dry weight)
weight of cultures after being dried (yield of dry products) [2, 5]: 16.8 g/L
content of 1,5-dicaffeoylquinic acid in the cells [3, 4]: more than 3.55%
content of chlorogenic acid in the cells [3, 4]: more than 1.86%
content of rutin in the cells [3, 4]: more than 0.072%
content of syringin in the cells [3, 4]: more than 1.09%

CC(=O)[O-].[Na+] [sodium acetate]
content of total flavonoids in the cells [1]: more than 21.8 % of the cells (dry weight)
weight of cultures after being dried (yield of dry products) [2]: 15 g/L
content of 1,5-dicaffeoylquinic acid in the cells [3]: more than 2.35%
content of chlorogenic acid in the cells [3]: more than 1.79%
content of rutin in the cells [3]: more than 0.064%
content of syringin in the cells [3]: more than 1.22%

N[C@@H](Cc1ccc(O)cc1)C(=O)O [tyrosine]
content of total flavonoids in the cells [1, 4]: more than 19.4 % of the cells (dry weight)
weight of cultures after being dried (yield of dry products) [2, 5]: 18.2 g/L
content of 1,5-dicaffeoylquinic acid in the cells [3, 4]: more than 2.75%
content of chlorogenic acid in the cells [3, 4]: more than 0.62%
content of rutin in the cells [3, 4]: more than 0.062%
content of syringin in the cells [3, 4]: more than 1.49%

silver nitrate
weight of cultures after being dried (yield of dry products) [2, 5]: 16 g/L
content of 1,5-dicaffeoylquinic acid in the cells [3, 4]: more than 2.97%
content of chlorogenic acid in the cells [3, 4]: more than 1.47%
content of rutin in the cells [3, 4]: more than 0.065%
content of syringin in the cells [3, 4]: more than 1.38%
